Assay results published in ChEMBL document CHEMBL1201862, “PubChem BioAssay data set” (2004).
Structures can show the parent of a compound that is named as a salt.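 All cell lines were grown in 96-well plates and treated with compound for 48 hours. The concentration for 50% growth inhibition is given as GI50.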 Active and inactive are the calls of the source. Rule as the data show it: active = GI50 up to about 1.1 µM and inactive = higher.

Legend:
Assay in all cases: inhibition of tumour cell growth, NCI panel, 48 h
CCRF-CEM = test system: CCRF-CEM
COLO 205 = test system: COLO 205
DU-145 = test system: DU-145
EKVX = test system: EKVX
HL-60 = test system: HL-60
HT-29 = test system: HT-29
IGROV-1 = test system: IGROV-1
K562 = test system: K562
LOX IMVI = test system: LOX IMVI
MCF7 = test system: MCF7
MDA-MB-435 = test system: MDA-MB-435
NCI-H460 = test system: NCI-H460
OVCAR-3 = test system: OVCAR-3
PC-3 = test system: PC-3
SF-295 = test system: SF-295
SF-539 = test system: SF-539
SR = test system: SR
SW-620 = test system: SW-620
A498 = test system: A498
ACHN = test system: ACHN
BT-549 = test system: BT-549
CAKI-1 = test system: CAKI-1
HCC 2998 = test system: HCC 2998
HCT-15 = test system: HCT-15
HOP-92 = test system: HOP-92
KM12 = test system: KM12
MDA-MB-231 = test system: MDA-MB-231
MDA-N = test system: MDA-N
MOLT-4 = test system: MOLT-4
NCI-H226 = test system: NCI-H226
NCI-H23 = test system: NCI-H23
NCI/ADR-RES = test system: NCI/ADR-RES
OVCAR-4 = test system: OVCAR-4
OVCAR-8 = test system: OVCAR-8
RPMI-8226 = test system: RPMI-8226
SF-268 = test system: SF-268
SK-MEL-28 = test system: SK-MEL-28
SN12C = test system: SN12C
SNB-19 = test system: SNB-19
SNB-75 = test system: SNB-75
TK-10 = test system: TK-10
U-251 = test system: U-251
UACC-257 = test system: UACC-257
UACC-62 = test system: UACC-62
UO-31 = test system: UO-31
A549 = test system: A549
HOP-62 = test system: HOP-62
Hs-578T = test system: Hs-578T
M14 = test system: M14
NCI-H522 = test system: NCI-H522
OVCAR-5 = test system: OVCAR-5
RXF 393 = test system: RXF 393
SK-MEL-2 = test system: SK-MEL-2
SK-MEL-5 = test system: SK-MEL-5
SK-OV-3 = test system: SK-OV-3

Cn1c2nc3ccccc3c-2cc2ccccc21 [NEOCRYPTOLEPINE HYDROCHLORIDE]
GI50 (CCRF-CEM): 4.4 µM (inactive) | GI50 (COLO 205): 2.76 µM (inactive) | GI50 (DU-145): 12.8 µM (inactive) | GI50 (EKVX): 3.98 µM (inactive) | GI50 (HL-60): 3.62 µM (inactive) | GI50 (HT-29): 4.69 µM (inactive) | GI50 (IGROV-1): 4.6 µM (inactive) | GI50 (K562): 4.3 µM (inactive) | GI50 (LOX IMVI): 5.07 µM (inactive) | GI50 (MCF7): 3.21 µM (inactive) | GI50 (MDA-MB-435): 5.65 µM (inactive) | GI50 (NCI-H460): 3.29 µM (inactive) | GI50 (OVCAR-3): 6.4 µM (inactive) | GI50 (PC-3): 5.45 µM (inactive) | GI50 (SF-295): 6.34 µM (inactive) | GI50 (SF-539): 5.74 µM (inactive) | GI50 (SR): 2.93 µM (inactive) | GI50 (SW-620): 5.79 µM (inactive)

CC1(C)/C(=N\O)C2(OS(=O)(=O)C(F)(F)F)CCC1C2 (stereo not drawn)
GI50 (A498): > 100 µM (inactive) | GI50 (ACHN): > 100 µM (inactive) | GI50 (BT-549): > 100 µM (inactive) | GI50 (CAKI-1): > 100 µM (inactive) | GI50 (CCRF-CEM): > 100 µM (inactive) | GI50 (EKVX): > 100 µM (inactive) | GI50 (HCC 2998): > 100 µM (inactive) | GI50 (HCT-15): > 100 µM | GI50 (HL-60): 12 µM (inactive) | GI50 (HOP-92): > 100 µM (inactive) | GI50 (KM12): > 100 µM (inactive) | GI50 (MDA-MB-231): > 100 µM (inactive) | GI50 (MDA-MB-435): 60.1 µM (inactive) | GI50 (MDA-N): > 100 µM (inactive) | GI50 (MOLT-4): > 100 µM (inactive) | GI50 (NCI-H226): 70.8 µM (inactive) | GI50 (NCI-H23): > 100 µM (inactive) | GI50 (NCI-H460): > 100 µM (inactive) | GI50 (NCI/ADR-RES): > 100 µM (inactive) | GI50 (OVCAR-4): > 100 µM (inactive) | GI50 (OVCAR-8): > 100 µM (inactive) | GI50 (RPMI-8226): 27.4 µM (inactive) | GI50 (SF-268): > 100 µM (inactive) | GI50 (SK-MEL-28): > 100 µM (inactive) | GI50 (SN12C): > 100 µM (inactive) | GI50 (SNB-19): > 100 µM (inactive) | GI50 (SNB-75): > 100 µM (inactive) | GI50 (SR): 55.1 µM (inactive) | GI50 (TK-10): > 100 µM (inactive) | GI50 (U-251): > 100 µM (inactive) | GI50 (UACC-257): > 100 µM (inactive) | GI50 (UACC-62): > 100 µM (inactive) | GI50 (UO-31): > 100 µM (inactive)

O=C1OC(c2ccccc2)=N/C1=C\c1cccnc1
GI50 (A549): > 100 µM (inactive) | GI50 (ACHN): > 100 µM (inactive) | GI50 (BT-549): 59.8 µM (inactive) | GI50 (CCRF-CEM): 29.2 µM (inactive) | GI50 (EKVX): > 100 µM (inactive) | GI50 (HCC 2998): > 100 µM (inactive) | GI50 (HCT-15): > 100 µM | GI50 (HL-60): 20.7 µM (inactive) | GI50 (HOP-62): > 100 µM (inactive) | GI50 (HOP-92): > 100 µM (inactive) | GI50 (HT-29): > 100 µM (inactive) | GI50 (Hs-578T): > 100 µM (inactive) | GI50 (IGROV-1): > 100 µM (inactive) | GI50 (K562): 34.8 µM (inactive) | GI50 (KM12): > 100 µM (inactive) | GI50 (M14): > 100 µM (inactive) | GI50 (MCF7): > 100 µM (inactive) | GI50 (MDA-MB-435): > 100 µM (inactive) | GI50 (MOLT-4): 2.84 µM (inactive) | GI50 (NCI-H226): > 100 µM (inactive) | GI50 (NCI-H23): > 100 µM (inactive) | GI50 (NCI-H460): > 100 µM (inactive) | GI50 (NCI-H522): > 100 µM (inactive) | GI50 (NCI/ADR-RES): > 100 µM (inactive) | GI50 (OVCAR-3): > 100 µM (inactive) | GI50 (OVCAR-4): > 100 µM (inactive) | GI50 (OVCAR-5): > 100 µM (inactive) | GI50 (OVCAR-8): > 100 µM (inactive) | GI50 (PC-3): > 100 µM (inactive) | GI50 (RPMI-8226): 48.3 µM (inactive) | GI50 (RXF 393): > 100 µM (inactive) | GI50 (SF-268): > 100 µM (inactive) | GI50 (SF-295): > 100 µM (inactive) | GI50 (SF-539): > 100 µM (inactive) | GI50 (SK-MEL-28): > 100 µM (inactive) | GI50 (SK-MEL-2): > 100 µM (inactive) | GI50 (SK-MEL-5): > 100 µM (inactive) | GI50 (SK-OV-3): > 100 µM (inactive) | GI50 (SNB-19): > 100 µM (inactive) | GI50 (SNB-75): > 100 µM (inactive) | GI50 (SR): 33 µM (inactive) | GI50 (SW-620): > 100 µM (inactive) | GI50 (TK-10): > 100 µM (inactive) | GI50 (U-251): > 100 µM (inactive) | GI50 (UACC-257): > 100 µM (inactive) | GI50 (UACC-62): > 100 µM (inactive) | GI50 (UO-31): > 100 µM (inactive)
